# Like-named read-outs stand apart in the source and are kept apart here.
# Experiments:
# C170 xenografts [1] = assay: C170 xenograft therapeutic model; type: in vivo, nude mice; conditions: administered therapeutically, after C170 xenograft implantation; FIG. 27
# Procedure: (§1) Therapeutic model. The colorectal tumour cell line, C170 was maintained in serial passage in nude mice. For therapy the mice were sacrificed and the tumours excised. The tumour was finely minced and […] pieces were implanted, under anaesthetic, subcutaneously into 30 male mice which had been randomly allocated to 4 experimental groups.
# Mice were explanted with 3 mm^3 pieces of C170 xenografts. […] On the same days mice were also injected intraperitonealy with 0.2 mg of SC104 mab. Control mice received either SC104 alone or control mouse IgG antibody with 5FU/leucovorin. Tumour size was measured by callipers and tumour cross sectional area calculated on days 12, 16, 19 and 23.
# C170 xenografts [2] = type: in vivo; conditions: day 6
# C170 cells = assay: In vitro inhibition of cell growth in combination with cytotoxic drugs, MTS; type: cell-based; conditions: 5 days, FIG. 25
# Procedure: 1×10^3 colorectal C170 cells were aliquoted into individual wells of a flat bottomed 96-well plate and left to adhere overnight at 37° C. The following day the cells were treated with cisplatin, mitomycin C, oxaliplatin and tamoxifen at final concentrations of 10, 3, 1, 0.3, 0.1 and 0 μM. Against each concentration of drug the following concentrations of SC104 were titrated: 10, 3, 1, 0.3 and 0 μg/ml. As a negative control 791T/36 at concentrations 100, 30, 10, 3 and 0 μg/ml, was titrated against each concentration of drug used. Duplicate wells were used. Cells were left for 5 days at 37° C. prior to the addition of MTS reagent to each well and optical density reading at 490 nm.
# C170 xenografts [3] = type: in vivo
# Procedure: as §1, with “Prevention” for “Therapeutic”
# Mice were explanted with 3 mm^3 pieces of C170 xenografts. Groups of mice were treated with 5-FU/leucovorin (12.5 mg/Kg) by intravenous infusion on days 1, 3, 5, 7 and 28. On the same days mice were also injected intraperitonealy with 0.2 mg of SC104 mab. Control mice received either SC104 alone or control mouse IgG antibody with 5-FU/leucovorin. Tumour size was measured by callipers and tumour cross sectional area calculated on days 7, 9, 12, 14 and 16. Animals were weighed to assess the toxicity of treatment. At the termination of the experiment tumours were weighed to assess anti-tumour efficacy.
compound,measurement,setting,value
"O=c1[nH]cc(F)c(=O)[nH]1 [5-FU, 5-Fluorouracil, reference compound]",inhibition of tumour growth,C170 xenografts [1],neither 5FU nor SC104 alone significantly inhibited growth
same,inhibition of tumour growth,C170 xenografts [2],62%
same,additive killing in combination with SC104,C170 cells,additive killing
same,survival of mice,"C170 xenografts [3]; Log Rank, FIG. 26b",significant improvement of survival
same,inhibition of tumour growth,C170 xenografts [3]; day 9,40%
same,inhibition of tumour growth,C170 xenografts [3]; day 12,45%
same,inhibition of tumour growth,C170 xenografts [3]; day 14,58%
O=C1[O][Pt]2([NH][C@@H]3CCCC[C@H]3[NH]2)[O]C1=O [oxaliplatin],additive killing in combination with SC104,C170 cells,No additive effect
CC/C(=C(\c1ccccc1)c1ccc(OCCN(C)C)cc1)c1ccccc1 [tamoxifen],additive killing in combination with SC104,C170 cells,additive killing
N.N.[Cl][Pt][Cl] [cisplatin],additive killing in combination with SC104,C170 cells,additive killing
"CO[C@@]12[C@H](COC(N)=O)C3=C(C(=O)C(C)=C(N)C3=O)N1C[C@@H]1N[C@@H]12 [mitomycin C, Mitomycin C]",additive killing in combination with SC104,C170 cells,additive killing
5-FU/leucovorin [reference compound],inhibition of tumour growth of freshly explanted tumours,"C170 xenografts [3]; SC104 200 μg/dose ip, 5-FU/leucovorin at maximum tolerated dose, FIG. 26a",50%
